Experimental data from PMC3193528, “Isothermal Titration Calorimetric Studies on the Interaction of the Major Bovine Seminal Plasma Protein, PDC-109 with Phospholipid Membranes” (PLoS ONE, 2011).

How the values were obtained:
PDC-109 [1] = target: T1, PDC-109 (Bos taurus, UniProt P02784); test: isothermal titration calorimetry, one set of sites model; type: binding; details: read-out: K a×10^-5 (M^-1) (converted)
T1 construct: native, purified from bull seminal plasma; 109 residues, 23-residue N-terminal stretch plus two Fn-II domains; mixture of glycoforms BSP-A1 and BSP-A2; polydisperse aggregate in solution
T1 sequence (P02784 26-134): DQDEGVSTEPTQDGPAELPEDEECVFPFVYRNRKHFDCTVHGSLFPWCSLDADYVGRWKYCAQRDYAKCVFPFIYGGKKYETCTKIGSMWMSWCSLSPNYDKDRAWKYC
Source text: isothermal titration calorimetry, one set of sites model on PDC-109

PDC-109 [2] = target: T1, PDC-109; test: isothermal titration calorimetry, two sets of sites model; type: binding; details: 25 °C; stronger site of two-site fit (n = 0.9), assigned to micelles; acyl chain of lipid not given; read-out: K a (converted)

Row | Compound | Kd (PDC-109 [1]) [µM] | Kd (PDC-109 [2]) [µM]
1 | CCCCCCCCCCCCCC(=O)OC[C@H](COP(=O)(O)OCC(O)CO)OC(=O)CCCCCCCCCCCCC (stereo partly shown) [DMPG] | 38.5 | –
2 | CCCCCCCCCCCCCCCC(=O)OC[C@H](COP(=O)([O-])OCC[N+](C)(C)C)OC(=O)CCCCCCCCCCCCCCC [DPPC] | 7.69 | –
3 | Lyso-PC | – | 1.43
4 | CCCCCCCCCCCCCC(=O)OC[C@H](COP(=O)([O-])OCC[N+](C)(C)C)OC(=O)CCCCCCCCCCCCC [DMPC] | 2.44 | –
